According to ChEMBL document CHEMBL2440076, “New triarylpyrazoles as broad-spectrum anticancer agents: design, synthesis, and biological evaluation” (Eur J Med Chem, 2013):

Legend:
Type in all cases: functional
COLO 205 = experiment: Growth inhibition of human COLO205 cells assessed as cell growth at 3X10'-6 M after 48 hrs by sulforhodamine B assay; conditions: COLO 205, 48 h, read-out: Activity
RXF 393 = experiment: Growth inhibition of human RXF393 cells assessed as cell growth at 3X10'-9 M after 48 hrs by sulforhodamine B assay; conditions: RXF 393, 48 h, read-out: Activity
SNB-75 = experiment: Growth inhibition of human SNB75 cells assessed as cell growth at 3X10'-7 M after 48 hrs by sulforhodamine B assay; conditions: SNB-75, 48 h, read-out: Activity
SK-OV-3 = experiment: Growth inhibition of human SKOV3 cells assessed as cell growth at 3X10'-7 M after 48 hrs by sulforhodamine B assay; conditions: SK-OV-3, 48 h, read-out: Activity
T47D = experiment: Growth inhibition of human T47D cells assessed as cell growth at 3X10'-6 M after 48 hrs by sulforhodamine B assay; conditions: read-out: Activity
CCRF-CEM = experiment: Growth inhibition of human CCRF-CEM cells assessed as cell growth at 3X10'-7 M after 48 hrs by sulforhodamine B assay; conditions: read-out: Activity
MDA-MB-435 = experiment: Growth inhibition of human MDA-MB-435 cells assessed as cell growth at 3X10'-6 M after 48 hrs by sulforhodamine B assay; conditions: MDA-MB-435, 48 h, read-out: Activity
NCI-H226 = experiment: Growth inhibition of human NCI-H226 cells assessed as cell growth at 3X10'-6 M after 48 hrs by sulforhodamine B assay; conditions: NCI-H226, 48 h, read-out: Activity
HL-60(TB) [1] = experiment: Growth inhibition of human HL-60(TB) cells assessed as cell growth at 3X10'-8 M after 48 hrs by sulforhodamine B assay; conditions: HL-60, 48 h, read-out: Activity
SW-620 = experiment: Growth inhibition of human SW620 cells assessed as cell growth at 3X10'-9 M after 48 hrs by sulforhodamine B assay; conditions: SW-620, 48 h, read-out: Activity
HOP-62 [2] = experiment: Growth inhibition of human HOP62 cells assessed as cell growth at 3X10'-6 M after 48 hrs by sulforhodamine B assay; conditions: HOP-62, 48 h, read-out: Activity
SK-MEL-2 = experiment: Growth inhibition of human SK-MEL-2 cells assessed as cell growth at 3X10'-6 M after 48 hrs by sulforhodamine B assay; conditions: SK-MEL-2, 48 h, read-out: Activity
SF-268 = experiment: Growth inhibition of human SF268 cells assessed as cell growth at 3X10'-8 M after 48 hrs by sulforhodamine B assay; conditions: SF-268, 48 h, read-out: Activity
MDA-MB-231 = experiment: Growth inhibition of human MDA-MB-231 cells assessed as cell growth at 3X10'-6 M after 48 hrs by sulforhodamine B assay; conditions: MDA-MB-231, 48 h, read-out: Activity
NCI-H460 = experiment: Growth inhibition of human NCI-H460 cells assessed as cell growth at 3X10'-8 M after 48 hrs by sulforhodamine B assay; conditions: NCI-H460, 48 h, read-out: Activity
[3] = Growth inhibition of human Hs 578T cells assessed as cell growth at 3X10'-9 M after 48 hrs by sulforhodamine B assay; conditions: read-out: Activity
CAKI-1 = experiment: Growth inhibition of human CAKI-1 cells assessed as cell growth at 3X10'-5 M after 48 hrs by sulforhodamine B assay; conditions: CAKI-1, 48 h, read-out: Activity
M14 = experiment: Growth inhibition of human M14 cells assessed as cell growth at 3X10'-9 M after 48 hrs by sulforhodamine B assay; conditions: M14, 48 h, read-out: Activity
HCT-15 = experiment: Growth inhibition of human HCT15 cells assessed as cell growth at 3X10'-8 M after 48 hrs by sulforhodamine B assay; conditions: HCT-15, 48 h, read-out: Activity
IGROV-1 = experiment: Growth inhibition of human IGROV1 cells assessed as cell growth at 3X10'-7 M after 48 hrs by sulforhodamine B assay; conditions: IGROV-1, 48 h, read-out: Activity
MCF7 = experiment: Growth inhibition of human MCF7 cells assessed as cell growth at 3X10'-6 M after 48 hrs by sulforhodamine B assay; conditions: MCF7, 48 h, read-out: Activity
HOP-92 = experiment: Growth inhibition of human HOP92 cells assessed as cell growth at 3X10'-8 M after 48 hrs by sulforhodamine B assay; conditions: HOP-92, 48 h, read-out: Activity
NCI-H322M = experiment: Growth inhibition of human NCI-H322M cells assessed as cell growth at 3X10'-8 M after 48 hrs by sulforhodamine B assay; conditions: read-out: Activity
MOLT-4 = experiment: Growth inhibition of human MOLT4 cells assessed as cell growth at 3X10'-9 M after 48 hrs by sulforhodamine B assay; conditions: MOLT-4, 48 h, read-out: Activity
HOP-62 [4] = experiment: Growth inhibition of human HOP62 cells assessed as cell growth at 3X10'-7 M after 48 hrs by sulforhodamine B assay; conditions: HOP-62, 48 h, read-out: Activity
OVCAR-4 = experiment: Growth inhibition of human OVCAR4 cells assessed as cell growth at 3X10'-5 M after 48 hrs by sulforhodamine B assay; conditions: OVCAR-4, 48 h, read-out: Activity
HCT-116 = experiment: Growth inhibition of human HCT116 cells assessed as cell growth at 3X10'-8 M after 48 hrs by sulforhodamine B assay; conditions: HCT-116, 48 h, read-out: Activity
UACC-257 = experiment: Growth inhibition of human UACC257 cells assessed as cell growth at 3X10'-6 M after 48 hrs by sulforhodamine B assay; conditions: UACC-257, 48 h, read-out: Activity
NCI-H23 [5] = experiment: Growth inhibition of human NCI-H23 cells assessed as cell growth at 3X10'-8 M after 48 hrs by sulforhodamine B assay; conditions: NCI-H23, 48 h, read-out: Activity
NCI-H23 [6] = experiment: Growth inhibition of human NCI-H23 cells assessed as cell growth at 3X10'-7 M after 48 hrs by sulforhodamine B assay; conditions: NCI-H23, 48 h, read-out: Activity
HL-60(TB) [7] = experiment: Growth inhibition of human HL-60(TB) cells assessed as cell growth at 3X10'-6 M after 48 hrs by sulforhodamine B assay; conditions: HL-60, 48 h, read-out: Activity
HT-29 = experiment: Growth inhibition of human HT-29 cells assessed as cell growth at 3X10'-6 M after 48 hrs by sulforhodamine B assay; conditions: HT-29, 48 h, read-out: Activity
SK-MEL-28 = experiment: Growth inhibition of human SK-MEL-28 cells assessed as cell growth at 3X10'-9 M after 48 hrs by sulforhodamine B assay; conditions: SK-MEL-28, 48 h, read-out: Activity
DU-145 = experiment: Growth inhibition of human DU145 cells assessed as cell growth at 3X10'-7 M after 48 hrs by sulforhodamine B assay; conditions: DU-145, 48 h, read-out: Activity
K562 = experiment: Growth inhibition of human K562 cells assessed as cell growth at 3X10'-9 M after 48 hrs by sulforhodamine B assay; conditions: K562, 48 h, read-out: Activity

SMILES	growth at 3 µM (COLO 205)	growth at 0.003 µM (RXF 393)	growth at 0.3 µM (SNB-75)	growth at 0.3 µM (SK-OV-3)	growth at 3 µM (T47D)	growth at 0.3 µM (CCRF-CEM)	growth at 3 µM (MDA-MB-435)	growth at 3 µM (NCI-H226)	growth at 0.03 µM (HL-60(TB) [1])	growth at 0.003 µM (SW-620)	growth at 3 µM (HOP-62 [2])	growth at 3 µM (SK-MEL-2)	growth at 0.03 µM (SF-268)	growth at 3 µM (MDA-MB-231)	growth at 0.03 µM (NCI-H460)	growth at 0.003 µM [3]	growth at 30 µM (CAKI-1)	growth at 0.003 µM (M14)	growth at 0.03 µM (HCT-15)	growth at 0.3 µM (IGROV-1)	also measured
COc1cc(-c2nn(-c3cccc(NC(=O)c4ccc(Cl)c(C(F)(F)F)c4)c3)cc2-c2ccncc2)ccc1Cl	74%	99%	77%	103%	40%	101%	-32%	59%	113%	98%	73%	36%	94%	27%	104%	93%	12%	99%	99%	95%	growth at 3 µM (MCF7): 42%; growth at 0.03 µM (HOP-92): 85%; growth at 0.03 µM (NCI-H322M): 90%; growth at 0.003 µM (MOLT-4): 100%; growth at 0.3 µM (HOP-62 [4]): 94%; growth at 30 µM (OVCAR-4): 32%; growth at 0.03 µM (HCT-116): 101%; growth at 3 µM (UACC-257): 60%; growth at 0.03 µM (NCI-H23 [5]): 92%; growth at 0.3 µM (NCI-H23 [6]): 92%; growth at 3 µM (HL-60(TB) [7]): 58%; growth at 3 µM (HT-29): 51%; growth at 0.003 µM (SK-MEL-28): 99%; growth at 0.3 µM (DU-145): 98%; growth at 0.003 µM (K562): 99%
O=C(Nc1cccc(-n2cc(-c3ccncc3)c(-c3ccc(Cl)c(O)c3)n2)c1)Nc1ccc(Cl)c(C(F)(F)F)c1	42%	101%	74%	95%	11%	80%	-31%	30%	116%	100%	11%	-41%	103%	-38%	100%	91%	-25%	100%	95%	85%	growth at 3 µM (MCF7): 2%; growth at 0.03 µM (HOP-92): 76%; growth at 0.03 µM (NCI-H322M): 105%; growth at 0.003 µM (MOLT-4): 110%; growth at 0.3 µM (HOP-62 [4]): 104%; growth at 30 µM (OVCAR-4): 9%; growth at 0.03 µM (HCT-116): 106%; growth at 3 µM (UACC-257): -22%; growth at 0.03 µM (NCI-H23 [5]): 100%; growth at 0.3 µM (NCI-H23 [6]): 93%; growth at 3 µM (HL-60(TB) [7]): 6%; growth at 3 µM (HT-29): 21%; growth at 0.003 µM (SK-MEL-28): 103%; growth at 0.3 µM (DU-145): 97%; growth at 0.003 µM (K562): 99%
COc1cc(-c2nn(-c3cccc(NC(=O)Nc4ccc(Cl)c(C(F)(F)F)c4)c3)cc2-c2ccncc2)ccc1Cl	-49%	98%	88%	103%	18%	93%	-36%	38%	103%	101%	22%	-12%	103%	-9%	102%	90%	-20%	106%	97%	109%	growth at 3 µM (MCF7): 5%; growth at 0.03 µM (HOP-92): 74%; growth at 0.03 µM (NCI-H322M): 93%; growth at 0.003 µM (MOLT-4): 104%; growth at 0.3 µM (HOP-62 [4]): 93%; growth at 30 µM (OVCAR-4): -2%; growth at 0.03 µM (HCT-116): 103%; growth at 3 µM (UACC-257): 20%; growth at 0.03 µM (NCI-H23 [5]): 101%; growth at 0.3 µM (NCI-H23 [6]): 97%; growth at 3 µM (HL-60(TB) [7]): 2%; growth at 3 µM (HT-29): 10%; growth at 0.003 µM (SK-MEL-28): 99%; growth at 0.3 µM (DU-145): 103%; growth at 0.003 µM (K562): 110%
O=C(Nc1cccc(-n2cc(-c3ccncc3)c(-c3ccc(Cl)c(O)c3)n2)c1)Nc1ccc(Cl)c(Cl)c1	61%	96%	83%	98%	26%	90%	14%	28%	101%	100%	35%	-11%	92%	15%	105%	89%	-9%	93%	103%	107%	growth at 3 µM (MCF7): 8%; growth at 0.03 µM (HOP-92): 93%; growth at 0.03 µM (NCI-H322M): 100%; growth at 0.003 µM (MOLT-4): 98%; growth at 0.3 µM (HOP-62 [4]): 111%; growth at 30 µM (OVCAR-4): 17%; growth at 0.03 µM (HCT-116): 100%; growth at 3 µM (UACC-257): -1%; growth at 0.03 µM (NCI-H23 [5]): 93%; growth at 0.3 µM (NCI-H23 [6]): 102%; growth at 3 µM (HL-60(TB) [7]): 16%; growth at 3 µM (HT-29): 60%; growth at 0.003 µM (SK-MEL-28): 102%; growth at 0.3 µM (DU-145): 105%; growth at 0.003 µM (K562): 100%
O=C(Nc1cccc(-n2cc(-c3ccncc3)c(-c3ccc(Cl)c(O)c3)n2)c1)Nc1cccc(C(F)(F)F)c1	90%	96%	85%	105%	44%	94%	26%	66%	94%	98%	70%	35%	94%	52%	101%	93%	2%	97%	100%	100%	growth at 3 µM (MCF7): 26%; growth at 0.03 µM (HOP-92): 77%; growth at 0.03 µM (NCI-H322M): 95%; growth at 0.003 µM (MOLT-4): 97%; growth at 0.3 µM (HOP-62 [4]): 105%; growth at 30 µM (OVCAR-4): 16%; growth at 0.03 µM (HCT-116): 97%; growth at 3 µM (UACC-257): 60%; growth at 0.03 µM (NCI-H23 [5]): 94%; growth at 0.3 µM (NCI-H23 [6]): 96%; growth at 3 µM (HL-60(TB) [7]): 41%; growth at 3 µM (HT-29): 96%; growth at 0.003 µM (SK-MEL-28): 103%; growth at 0.3 µM (DU-145): 97%; growth at 0.003 µM (K562): 94%
